# Reference: paper PMC7076739, “Cytotoxycity and antiplasmodial activity of phenolic derivatives from Albizia zygia (DC.) J.F. Macbr. (Mimosaceae)” (BMC Complementary Medicine and Therapies, 2020)
# Where two headings read alike, the source gives them in different places.
# Tests used:
# P. falciparum strain 3D7 = assay: P. falciparum 3D7 lactate dehydrogenase assay; assay type: cell-based, Plasmodium falciparum; settings: for IC50: read-out: IC50 against P. falciparum; for SI = IC50 HepG2 cell/IC50 P. falciparum: selectivity index, HepG2 vs P. falciparum; for times more active than natural precursor quercetin 3-O-α-L-rhamnopyranoside (2) against P. falciparum: antiplasmodial activity, strain 3D7
# Method: P. falciparum 3D7 lactate dehydrogenase assay: Parasites of the P. falciparum strain 3D7 were grown in fresh group 0 positive human erythrocytes, obtained from the Centro Regional de Transfusion Sanguınea-SAS (Granada, Spain). This assay was performed in duplicate for each compound using a sixteen (16) point dose response curve (½ serial dilutions) with concentrations starting from 50 μM until 1.5 nM to determine the IC50s of the compounds. Adding 25 μL of P. falciparum 3D7 parasite culture (per well) containing parasitized red blood cells at 0.25% parasitaemia and 2% haematocrit in RPMI-1640, 5% Albumax II, 2% […] 0.3% glutamine and 150 μM hypoxanthine and incubated at 37 °C for 72 h with 5% CO2, 5% O2 and 95% N2. For negative and positive growth controls, 10 μM chloroquine and complete parasite growth medium were respectively used. The final readouts of the assay was done by measuring the absorbance of the reactions at 650 nm in an Envision plate reader (Perkin Elmer, USA) and the results analysed by Genedata software (GenedataAG, Basel, Switzerland), parasite growth was measured by LDH assay as previously described.
# The natural compounds isolated from the leaves of A. zygia as well as their semi-synthetic derivatives were tested against Plasmodium falciparum (Table 1) using a microdilution method in liquid medium as previously described.
# HepG2 = assay: MTT cytotoxicity assay, HepG2; assay type: cell-based; settings: Homo sapiens, read-out: IC50 HepG2
# Source text: (§1) Anticancer assays: Five tumor cell lines (MiaPaca-2 (CRL-1420), a carcinoma pancreatic […]; Hep G2 (HB-80665), a perpetual cell line which was derived from the liver tissue of a […] with a well-differentiated hepatocellular carcinoma; A549 (CCL-185), a carcinoma lung from […]; A2058 (CRL-11147), Human skin melanoma from an adult derived from lymph node and MCF-7 (HTB-22), a breast adenocarcinoma […]) were obtained from ATCC. The MTT (3-(4,5-dimethylthiazol-2-yl)-2,5-diphenyltetrazoliumbromide) colorimetric assay, which measures mitochondrial metabolic activity, was employed to estimate the amount of living cells. According to the huge amount of celles to be plated, SelecT (TAP Biosystems, Royston, UK), a cell culture robotic system was used to process ten thousand cells per well (for 72 h assay). Cells were seeded at a concentration of 1× 10^4 cells/well in 200 μl culture medium and incubated at 37 °C in 5% CO2. After 24 h, the automated liquid-handling system Biomek FX (Beckman Coulter, Pasadena, CA, USA) was used to replace the medium with a final volume of 200 μL and 1 μL of compound (dilution 1/200) and to add controls to the plates and which were then be incubated for 72 h. The test compounds were examined in triplicate with serial two-fold dilutions. After incubation, MTT solution was prepared at 5 mg/mL in PBS 1X and then diluted at 0.5 mg/mL in MEM without phenol red. The sample solution in wells was removed and 100 μL of MTT dye was added to each well. The plates were gently shaken and incubated for 3 h at 37 °C in 5% CO2 incubator. The supernatant was removed and 100 μL of DMSO 100% was added. The plates were gently shaken to solubilize theoriginated formazan and absorbance at 570 nm was read in a Victor2 Wallac spectrofluorometer (PerkinElmer, Waltham, MA, USA). IC50 values were calculated as the concentration that decreases 50% of the cell viability using Genedata Screener software (Genedata AG, Basel, Switzerland). Curve fitting followed the Smart Fit strategy with Hill model selection.
# MiaPaca-2 = assay: MTT cytotoxicity assay, MiaPaca-2; assay type: cell-based; settings: Homo sapiens, read-out: IC50 MiaPaca-2
# Source text: as §1
# MCF-7 = assay: MTT cytotoxicity assay, MCF-7; assay type: cell-based; settings: Homo sapiens, MCF7, 72 h, read-out: IC50 MCF-7
# Source text: as §1
# A-549 = assay: MTT cytotoxicity assay, A-549; assay type: cell-based; settings: Homo sapiens, read-out: IC50 A-549
# Source text: as §1
# A2058 = assay: MTT cytotoxicity assay, A2058; assay type: cell-based; settings: Homo sapiens, A2058, 72 h, read-out: IC50 A2058
# Source text: as §1
# [1] = Plasmodium falciparum, 3D7, 72 h
# [2] = Plasmodium falciparum, 3D7, 72 h, strain 3D7, 72 h, LDH readout
IC50 (P. falciparum strain 3D7; [2]),"IC50 (P. falciparum strain 3D7; strain 3D7, 72 h, LDH readout)",SMILES,IC50 (P. falciparum strain 3D7; [1]),"IC50 (HepG2; HepG2, MTT, 72 h)","IC50 (MiaPaca-2; MIA PaCa-2, MTT, 72 h)","IC50 (MCF-7; MTT, 72 h)","IC50 (A-549; A549, MTT, 72 h)","IC50 (A2058; MTT, 72 h)","IC50 (HepG2; HepG2, 72 h)",SI = IC50 HepG2 cell/IC50 P. falciparum (P. falciparum strain 3D7),"IC50 (MiaPaca-2; MIA PaCa-2, 72 h)",IC50 (MCF-7),"IC50 (A-549; A549, 72 h)",IC50 (A2058),times more active than natural precursor quercetin 3-O-α-L-rhamnopyranoside (2) against P. falciparum (P. falciparum strain 3D7)
,,"CCN(CC)CCCC(C)Nc1ccnc2cc(Cl)ccc12 (stereo not shown) [Chloroquine, chloroquine, reference compound]",0.00296 µM,,,,,,,,,,,,
> 100 µM,,"O=C(O)Cc1ccc(O)cc1OC1OC(CO)C(O)C(O)C1O [Compound 1, 2-O-β-D-glucopyranosyl-4-hydroxyphenylacetic acid]",,121.2 ± 0.25 µM,30.3 ± 0.25 µM,42.7 ± 0.25 µM,121.2 ± 0.25 µM,66.7 ± 0.25 µM,,,,,,,
,,"C[C@@H]1O[C@@H](Oc2c(-c3ccc(O)c(O)c3)oc3cc(O)cc(O)c3c2=O)[C@H](O)[C@H](O)[C@H]1O [Compound 2, quercetin 3-O-α-L-rhamnopyranoside]",25.1 ± 0.25 µM,,,,,,87.5 ± 0.25 µM,(3.49),87.5 ± 0.25 µM,87.5 ± 0.25 µM,89.5 ± 0.25 µM,87.5 ± 0.25 µM,
19 ± 0.25 µM,,"C[C@@H]1O[C@@H](Oc2c(-c3ccc(O)cc3)oc3cc(O)cc(O)c3c2=O)[C@H](O)[C@H](O)[C@H]1O [Compound 3, kaempferol 3-O-α-L-rhamnopyranoside]",,23.2 ± 0.25 µM,46.4 ± 0.25 µM,46.4 ± 0.25 µM,23.2 ± 0.25 µM,46.4 ± 0.25 µM,,(1.22),,,,,
> 100 µM,,"C[C@@H]1O[C@@H](Oc2ccc(-c3oc4cc(O)cc(O)c4c(=O)c3O[C@@H]3O[C@@H](C)[C@H](O)[C@@H](O)[C@H]3O)cc2O)[C@H](O)[C@H](O)[C@H]1O [Compound 4, quercetin 3,4′-di-O-α-L-rhamnopyranoside]",,17.3 ± 0.25 µM,17.3 ± 0.25 µM,17.3 ± 0.25 µM,34.6 ± 0.25 µM,34.6 ± 0.25 µM,,,,,,,
> 100 µM,,"C[C@@H]1O[C@@H](Oc2ccc(-c3oc4cc(O)cc(O)c4c(=O)c3O[C@@H]3O[C@@H](C)[C@H](O)[C@@H](O)[C@H]3O)cc2)[C@H](O)[C@H](O)[C@H]1O [Compound 5, kaempferol 3,4′-di-O-α-L-rhamnopyranoside]",,16.8 ± 0.25 µM,16.8 ± 0.25 µM,33.7 ± 0.25 µM,33.7 ± 0.25 µM,33.7 ± 0.25 µM,,,,,,,
> 100 µM,,CC(=O)OCC1OC(Oc2cc(O)ccc2CC(=O)O)C(OC(C)=O)C(OC(C)=O)C1OC(C)=O (stereo not shown) [Compound 7],,37 ± 0.25 µM,10 ± 0.25 µM,37 ± 0.25 µM,20.1 ± 0.25 µM,37 ± 0.25 µM,,,,,,,
> 100 µM,,CC(=O)OCC1OC(Oc2cc(OC(C)=O)ccc2CC(=O)O)C(OC(C)=O)C(OC(C)=O)C1OC(C)=O (stereo not shown) [Compound 8],,40.2 ± 0.25 µM,18.5 ± 0.25 µM,40.2 ± 0.25 µM,20.1 ± 0.25 µM,40.2 ± 0.25 µM,,,,,,,
7.47 ± 0.25 µM,7.5 ± 0.25 µM,CC(=O)OC1C(C)OC(Oc2c(-c3ccc(O)c(O)c3)oc3cc(O)cc(O)c3c2=O)C(OC(C)=O)C1OC(C)=O (stereo not shown) [Compound 9],,22.6 ± 0.25 µM,17.4 ± 0.25 µM,10.8 ± 0.25 µM,34.8 ± 0.25 µM,12.2 ± 0.25 µM,,,,,,,over 3 times
6.77 ± 0.25 µM,6.8 ± 0.25 µM,CC(=O)Oc1cc(O)c2c(=O)c(OC3OC(C)C(OC(C)=O)C(OC(C)=O)C3OC(C)=O)c(-c3ccc(O)c(O)c3)oc2c1 (stereo not shown) [Compound 10],,64.9 ± 0.25 µM,64.9 ± 0.25 µM,,30.5 ± 0.25 µM,,,,,,,,over 3 times
,,"COc1cccc2c1C(=O)c1c(O)c3c(c(O)c1C2=O)C[C@@](O)(C(=O)CO)C[C@@H]3O[C@H]1C[C@H](N)[C@H](O)[C@H](C)O1 [Doxorubicin, reference compound]",,< 7e-05 µM,< 7e-05 µM,< 7e-05 µM,< 7e-05 µM,< 7e-05 µM,,,,,,,
